{"source": "patent US20170197977A9", "about": "“COMPOSITIONS AND METHODS FOR TREATING NEURODEGENERATIVE DISEASE” (COGNITION THERAPEUTICS, INC., priority 2011, published 2017)", "key": {"[1]": {"system": "Abeta oligomer-induced synapse loss", "assay": "Synapse loss assay (synaptophysin puncta) in primary neurons", "format": "cell-based, rat", "conditions": "for Block synapse loss: Table 10B; for Abeta oligomer-induced synapse loss: in words", "protocol": "In this assay, Abeta oligomers were brought in contact with mature primary neurons in culture and their binding was determined by immunohistochemistry (anti-Abeta antibody) and quantified by image processing. The amount of Abeta in neuronal dendrites is assessed by counting the number of labeled puncta on the neuritis. […] This labeling is associated with synapses, co-localizing with the post-synaptic scaffold protein PSD-95 (Lacor et al., '04). […] The number of synapses can also be quantified in this assay by immunofluorochemistry. Similar procedures for binding assays can be found in the literature. […] Review.\nPrimary hippocampal neuronal culture was established as in the membrane trafficking assay above. […] Pretreatment with compounds to be tested lasted for 1 hr and addition of Abeta oligomers or no oligomer (vehicle alone) in a final concentration of 70 ul was followed by incubation for an additional 23 hrs.\nThe plates were then washed 3× with PBS for 5 min each. The plates were blocked at RT for 1 hr in 5% goat serum and 0.5% Triton X-100 in PBS. […] Primary antibodies were incubated overnight at 4° C. The plates were then washed 3× with PBS for 5 min each. […] Secondary antibodies were incubated at RT for 1 hr. The plates were washed once with PBS. DAPI (4′,6-diamidino-2-phenylindole, Invitrogen) was then applied at 0.03 ug/ul and incubated at RT for 5 min, then washed with PBS.\nImages were captured and analyzed with the Cellomics VTI automated microscope platform, using the Neuronal Profiling algorithm. For statistical analysis, a Tukey-Kramer pair-wise comparison with unequal variance was used."}, "[2]": {"system": "Abeta oligomer-induced membrane trafficking deficits", "assay": "Membrane trafficking/exocytosis (MTT) assay in mature primary hippocampal neurons", "format": "cell-based, rat", "conditions": "for Functional Neuronal Phenotype: Table 10B", "protocol": "The present exocytosis assay was adapted for use with mature primary neuronal cultures grown for 3 weeks in vitro.\nThe methods used to generate the results were as follows in the Membrane Trafficking/Exocytosis (MTT) assay.\nPrimary hippocampal neurons from E18 Sprague-Dawley rat embryos were plated at optimized concentrations in 384 well plates in NB media (Invitrogen). Neurons were maintained in cultures for 3 weeks, with twice weekly feeding of NB media with N2 supplement (Invitrogen).\n[…] MTT reagent (3-(4,5-dimethylthizaol-2yl)-2,5diphenyl tetrazolium bromide) (Roche Molecular Biochemicals) was reconstituted in phosphate buffered saline to 5 mg/mL. 10 μL of MTT labeling reagent is added to each well and incubated at 37° C. for 1 h, then imaged. Exocytosis was assessed by automated microscopy and image processing to quantify the amount of endocytosed and exocytosed formazan.\nEach assay plate was formatted so that compounds are tested with and without Abeta oligomer on each plate."}, "[3]": {"system": "neuronal cultures"}, "[4]": {"system": "caspase-3 activity in neurons", "assay": "Caspase-3 activity assay in neurons", "format": "cell-based", "protocol": "The activation of endogenous caspase-3 by sigma-2 receptor ligands was measured using the Caspase-3 Colorimetric Activity Assay Kit (Milipore, Billerica, Mass.) according to the manufacture's protocol. Briefly, MDA-MB 435 or MDA-MB23I cells were plated at 0.5×10^6 cells 100 mm dish. 24 hours after plating, sigma-2 ligands were added to the culture dishes to induce caspase 3 activation. The final concentration of the sigma-2 ligand was its EC50. 24 hours after treatment, cells were harvested, lysed in 300 uL of Cell Lysis Buffer, and centrifuged for 5 minutes at 10,000×g. Supernatant was collected and incubated with caspase-3 substrate, DEVD-pNA, for 2 hours at 37° C. […] Compounds IXa,IXb and II behaved like sigma-2 […] in both cancer cells and neurons."}, "[5]": {"system": "SKOV-3 human ovarian cancer cell line", "assay": "MTS tumor cell viability assay", "format": "cell-based", "conditions": "for Action: agonist/antagonist call relative to siramesine; for IC50: Tumor cell viability, 48 hrs", "protocol": "The cytotoxicity of compounds shown below was determined using the CellTiter96 Aqueous One Solution Assay (Promega, Madison, Wis.). […] The plate was read at 490 nm in a Victor3 plate reader (PerkinElmer Life and Analytical Sciences, Shelton, Conn.). The EC^50 value, defined as the concentration of the sigma ligand required to inhibit cell viability by 50% relative to untreated cells, was determined from the dose response curve for each cell line."}, "[6]": {"system": "caspase-3 activity in SKOV-3 human ovarian cancer cells", "assay": "Caspase-3 activity assay in tumor cells", "format": "cell-based"}, "[7]": {"system": "neuronal cultures", "assay": "Nuclear intensity / morphology in neuronal cultures", "conditions": "24 hours"}, "[8]": {"system": "sigma-2 receptor", "assay": "Autoradiography, displacement of [3H]-RHM-1 in brain sections", "format": "binding", "conditions": "1 μM; monkey frontal cortex, monkey hippocampus, human temporal cortex", "procedure": "Brain sections in 20 μM thickness from rats, rhesus monkeys and postmortem human brains were cut using with a Microm cryotome and mounted on superfrost plus glass slides (Fisher Scientific, Pittsburgh, Pa.)., and serial sections through the brain regions of cerebral cortex and hippocampus were used in this study.\nSlides were dried and made conductive by coating with a copper foil tape on the free side and then placed in the gas chamber [mixture of argon and triethylamine (Sigma-Aldrich, USA)] of a gaseous detector, the Beta Imager 2000Z Digital Beta Imaging System (Biospace, France). […] [^3H]Microscale (American Radiolabeled Chemicals, Inc., St. Louis, Mo.) was counted at the same time as a reference for total radioactivity quantitative analysis, i.e., to convert the cpm/mm2 to nCi/mg tissue. Quantitative analysis was performed with the program Beta-Image Plus (BioSpace, France) for the anatomical regions of interest (ROI), i.e., to obtain the quantitative radioactivity uptake (cpm/nlln2) in the regions of cortex and hippocampus. The binding density was normalized to fmol/mg tissue based on the specific activities of the corresponding radioligands and calibration curve from the standard [^3H]Microscale."}}, "note": "Read-outs that look alike come from different tables or passages of the source.", "data": [{"molecule": "COc1cc(CCC(C)NCc2ccc(C(F)(F)F)cc2)ccc1O", "note": "(single isomer, unassigned; (+)) [(+) enantiomer of Cpd II]", "values": [{"measurement": "Block synapse loss", "setting": "[1]; listed as II (+) isomer", "value": 47, "unit": "%"}, {"measurement": "Functional Neuronal Phenotype", "setting": "[2]", "value": "Antagonist"}, {"measurement": "EC50", "setting": "[2]; dose response of % vesicles against Abeta oligomer concentration, 0 uM of enantiomer (Abeta oligomer alone), read-out: EC50 against Abeta at Concentration 0 uM", "value": 1190, "unit": "nM"}, {"measurement": "EC50", "setting": "[2]; read-out: EC50 against Abeta at Concentration 20 uM, dose response of % vesicles against Abeta oligomer concentration, 20 uM of enantiomer", "value": 1460, "unit": "nM"}]}, {"molecule": "COc1cc(CCC(C)NCc2ccc(C(F)(F)F)cc2)ccc1O", "note": "(single isomer, unassigned; (-)) [(−) enantiomer of Cpd II]", "values": [{"measurement": "Block synapse loss", "setting": "[1]; listed as II (−) isomer", "value": 0, "unit": "%"}, {"measurement": "EC50", "setting": "[2]; Rattus norvegicus, Hippocampal neuron, Table 4, read-out: EC50 in screening assay using single concentration of Abeta oligomer", "value": 10900, "unit": "nM"}, {"measurement": "EC50", "setting": "[2]; Rattus norvegicus, Hippocampal neuron, dose response of % vesicles against Abeta oligomer concentration, 0 uM of enantiomer (Abeta oligomer alone), read-out: EC50 against Abeta at Concentration 0 uM", "value": 1050, "unit": "nM"}, {"measurement": "EC50", "setting": "[2]; Rattus norvegicus, Hippocampal neuron, read-out: EC50 against Abeta at Concentration 20 uM, dose response of % vesicles against Abeta oligomer concentration, 20 uM of enantiomer", "value": 2820, "unit": "nM"}, {"measurement": "Functional Neuronal Phenotype", "setting": "[2]", "value": "Antagonist"}]}, {"molecule": "CCCN(CCC)CCc1ccc(OC)c(OCCc2ccccc2)c1", "note": "[NE-100, reference compound]", "values": [{"measurement": "Abeta oligomer-induced synapse loss", "setting": "[1]", "value": "completely eliminated synapse loss"}]}, {"molecule": "COc1cc2c(cc1OC)CN(CCCCNC(=O)c1cc(C)ccc1OC)CC2", "note": "[RHM-1, N-[4-(3,4-dihydro-6,7-dimethoxyisoquinolin-2(1H)-yl)butyl]-2-methoxy-5-methylbenzamide]", "values": [{"measurement": "Nuclear morphology / nuclear intensity compared to vehicle", "setting": "[3]", "value": "did not decrease nuclear intensity"}, {"measurement": "Induction of caspase-3 activity", "setting": "[4]", "value": "did not induce caspase-3 activity"}, {"measurement": "Action", "setting": "[5]", "value": "Antagonist"}, {"measurement": "Block of caspase-3 activation caused by sigma-2 receptor agonist SV-119", "setting": "[6]", "value": "do not block caspase-3 activation"}, {"measurement": "Induction of caspase-3 activity", "setting": "[6]", "value": "did not induce caspase-3 activity"}]}, {"molecule": "COc1ccc(C)cc1NC(=O)OC1CC2CCCC(C1)N2CCCCCCN", "note": "(stereo not drawn) [SV-119]", "values": [{"measurement": "Induction of caspase-3 activity", "setting": "[4]", "value": "activate caspase-3"}, {"measurement": "IC50", "setting": "[5]", "value": "21700 ± 2900", "unit": "nM"}, {"measurement": "Action", "setting": "[5]", "value": "Full agonist"}, {"measurement": "Induction of caspase-3 activity", "setting": "[6]", "value": "activate caspase-3"}, {"measurement": "Nuclear morphology / nuclear intensity compared to vehicle", "setting": "[7]", "value": "caused significant abnormal nuclear morphology"}]}, {"molecule": "Fc1ccc(-n2cc(CCCCN3CCC4(CC3)OCc3ccccc34)c3ccccc32)cc1", "note": "[Siramesine]", "values": [{"measurement": "Induction of caspase-3 activity", "setting": "[4]", "value": "induced"}, {"measurement": "Displacement of 18.4 nM [3H]-RHM-1", "setting": "[8]", "value": "partially displace"}, {"measurement": "Action", "setting": "[5]", "value": "Full agonist"}, {"measurement": "Induction of caspase-3 activity", "setting": "[6]", "value": "induced caspase-3 activity"}, {"measurement": "Nuclear morphology / nuclear intensity compared to vehicle", "setting": "[7]", "value": "caused significant abnormal nuclear morphology"}]}, {"molecule": "COc1ccc(C)cc1NC(=O)OC1CC2CCCC(C1)N2Cc1ccc(N(C)C)cc1", "note": "(stereo not drawn) [WC-26]", "values": [{"measurement": "IC50", "setting": "[5]", "value": "65600 ± 6300", "unit": "nM"}, {"measurement": "Action", "setting": "[5]", "value": "Partial agonist"}, {"measurement": "Nuclear morphology / nuclear intensity compared to vehicle", "setting": "[7]", "value": "caused significant abnormal nuclear morphology"}]}, {"molecule": "O=C(CCCN1CCC(O)(c2ccc(Cl)cc2)CC1)c1ccc(F)cc1", "note": "[haloperidol, reference compound]", "values": [{"measurement": "Abeta oligomer-induced synapse loss", "setting": "[1]", "value": "completely eliminated synapse loss"}]}, {"molecule": "synthetic Abeta oligomer: Abeta 1-42 oligomers made according to published methods [reference compound]", "values": [{"measurement": "EC50", "setting": "[2]; synthetic Abeta oligomer alone, read-out: EC50 of Abeta oligomer in membrane trafficking assay", "value": 820, "unit": "nM"}]}]}
